Laboratory results taken from patent US20060045953A1 (priority 2004, published 2006).

Target: T1, hT1R2/hT1R3 sweet receptor (Homo sapiens, UniProt Q7RTX0+Q8TE23)
T1 construct: expressed in transfected cells; host or cells: HEK293 derivative stably expressing Gα15, clone S-9
T1 sequence (Q8TE23 20-839): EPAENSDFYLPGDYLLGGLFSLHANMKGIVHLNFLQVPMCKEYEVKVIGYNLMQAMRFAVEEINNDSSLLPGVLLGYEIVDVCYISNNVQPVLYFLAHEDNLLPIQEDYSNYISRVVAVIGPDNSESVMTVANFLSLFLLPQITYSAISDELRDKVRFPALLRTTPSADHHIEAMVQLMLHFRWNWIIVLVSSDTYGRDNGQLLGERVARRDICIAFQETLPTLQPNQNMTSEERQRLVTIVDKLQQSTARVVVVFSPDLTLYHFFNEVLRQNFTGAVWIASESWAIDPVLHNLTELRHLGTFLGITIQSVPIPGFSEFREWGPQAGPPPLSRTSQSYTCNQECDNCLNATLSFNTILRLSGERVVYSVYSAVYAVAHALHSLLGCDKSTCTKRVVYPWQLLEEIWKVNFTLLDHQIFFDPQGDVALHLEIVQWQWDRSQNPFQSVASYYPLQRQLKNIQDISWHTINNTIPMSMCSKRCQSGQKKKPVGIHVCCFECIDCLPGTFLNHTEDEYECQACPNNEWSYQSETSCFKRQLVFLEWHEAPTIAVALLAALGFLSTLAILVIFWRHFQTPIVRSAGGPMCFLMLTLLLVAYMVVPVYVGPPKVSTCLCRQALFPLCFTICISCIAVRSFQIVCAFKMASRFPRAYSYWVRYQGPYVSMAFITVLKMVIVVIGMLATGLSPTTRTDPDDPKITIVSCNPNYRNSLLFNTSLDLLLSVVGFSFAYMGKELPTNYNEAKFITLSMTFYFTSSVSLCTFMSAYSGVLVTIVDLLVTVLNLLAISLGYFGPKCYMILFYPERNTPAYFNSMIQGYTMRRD
T1 sequence (Q7RTX0 21-852): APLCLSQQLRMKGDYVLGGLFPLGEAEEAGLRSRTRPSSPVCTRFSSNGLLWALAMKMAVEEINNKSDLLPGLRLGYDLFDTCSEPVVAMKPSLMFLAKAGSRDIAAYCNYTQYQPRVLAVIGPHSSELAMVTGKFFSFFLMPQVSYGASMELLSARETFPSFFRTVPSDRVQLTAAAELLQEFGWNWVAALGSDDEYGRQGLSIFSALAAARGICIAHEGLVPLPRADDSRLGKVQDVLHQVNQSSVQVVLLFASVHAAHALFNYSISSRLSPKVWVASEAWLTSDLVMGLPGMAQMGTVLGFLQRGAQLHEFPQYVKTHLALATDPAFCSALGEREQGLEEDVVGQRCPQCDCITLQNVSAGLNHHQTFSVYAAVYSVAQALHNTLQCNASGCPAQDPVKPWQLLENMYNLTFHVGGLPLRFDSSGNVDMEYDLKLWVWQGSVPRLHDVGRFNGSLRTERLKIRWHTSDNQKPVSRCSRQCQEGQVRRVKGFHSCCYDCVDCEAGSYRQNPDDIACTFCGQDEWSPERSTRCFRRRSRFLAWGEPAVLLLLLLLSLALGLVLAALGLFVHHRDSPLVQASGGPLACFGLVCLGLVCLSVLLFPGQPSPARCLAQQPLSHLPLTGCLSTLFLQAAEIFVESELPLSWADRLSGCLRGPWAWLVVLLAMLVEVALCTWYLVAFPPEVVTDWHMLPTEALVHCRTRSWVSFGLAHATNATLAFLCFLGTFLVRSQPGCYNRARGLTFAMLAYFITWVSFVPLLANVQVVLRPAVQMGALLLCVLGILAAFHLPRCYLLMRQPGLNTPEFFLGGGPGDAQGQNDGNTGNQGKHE
Test: In vitro hT1R2/hT1R3 sweet taste receptor activation assay (FLIPR, dose response)
Format: cell-based
Settings: Table E, Sweet Enhancer Amides; read-out: Sweet EC50
Protocol: Activity was determined using an automated fluorometric imaging assay on a FLIPR instrument (Fluorometric Intensity Plate Reader, Molecular Devices, Sunnyvale, Calif.) (designated FLIPR assay). […] S-9 cells were grown for 24 hours at 37° C. S-9 cells were then loaded with the calcium dye Fluo-3AM (Molecular Probes, Eugene, Oreg.), 4 µM in a phosphate buffered saline (D-PBS) (Invitrogen, Carlsbad, Calif.), for 1 hour at room temperature. After replacement with 25 µl D-PBS, stimulation was performed in the FLIPR instrument and at room temperature by the addition of 25 µl D-PBS supplemented with different stimuli at concentrations corresponding to twice the desired final level.
For dose-responses analysis, stimuli were presented in duplicates at 10 different concentrations ranging from 60 nM to 30 µM. Activities were normalized to the response obtained with 400 mM D-fructose, a concentration that elicits maximum receptor response. EC50s were determined using a non-linear regression algorithm (using a Senomyx, Inc. software), where the Hill slope, bottom asymptotes and top asymptotes were allow to vary.

Structure (SMILES) | EC50 [µM]
Cc1cccc(C)c1C(=O)N[C@H]1CCCc2ccccc21 [Example E14, (S)-2,6-dimethyl-N-(1,2,3,4-tetrahydronaphthalen-1-yl)benzamide] | 2.91
O=C(NC1CCCc2ccccc21)c1c(Cl)cccc1Cl (stereo not shown) [Example E15, 2,6-dichloro-N-(1,2,3,4-tetrahydronaphthalen-1-yl)benzamide] | 3.02
COc1c(Cl)ccc(Cl)c1C(=O)NC1CCCc2ccccc21 (stereo not shown) [Example E16, 3,6-dichloro-2-methoxy-N-(1,2,3,4-tetrahydronaphthalen-1-yl)benzamide] | 3.04
O=C(N[C@@H]1CCCc2ccccc21)c1cccc(O)c1O [Example E17, (R)-2,3-dihydroxy-N-(1,2,3,4-tetrahydronaphthalen-1-yl)benzamide] | 3.13
Cc1c(F)cccc1C(=O)N[C@H]1CCCc2ccccc21 [Example E19, (S)-3-fluoro-2-methyl-N-(1,2,3,4-tetrahydronaphthalen-1-yl)benzamide] | 3.57
COc1ccc(Cl)c(OC)c1C(=O)N[C@H]1CCCc2ccccc21 [Example E20, (S)-3-chloro-2,6-dimethoxy-N-(1,2,3,4-tetrahydronaphthalen-1-yl)benzamide] | 4.13
O=C(N[C@@H]1CCCc2ccccc21)c1cncc(Br)c1 [Example E21, (R)-5-bromo-N-(1,2,3,4-tetrahydronaphthalen-1-yl)nicotinamide] | 4.19
O=C(N[C@@H]1CCCc2ccccc21)c1cccc(Cl)c1 [Example E22, (R)-3-chloro-N-(1,2,3,4-tetrahydronaphthalen-1-yl)benzamide] | 4.52
O=C(N[C@@H]1CCCc2ccccc21)c1cccc(F)c1 [Example E23, (R)-3-fluoro-N-(1,2,3,4-tetrahydronaphthalen-1-yl)benzamide] | 4.86
O=C(N[C@@H]1CCCc2ccccc21)c1cc(O)ccc1O [Example E24, (R)-2,5-dihydroxy-N-(1,2,3,4-tetrahydronaphthalen-1-yl)benzamide] | 6.04
Cc1nocc1C(=O)N[C@@H]1CCCc2ccccc21 [Example E25, (R)-3-methyl-N-(1,2,3,4-tetrahydronaphthalen-1-yl)isoxazole-4-carboxamide] | 7.79
COc1cc(C(=O)NC2CCCCC2C)cc(Cl)n1 (stereo not shown) [Example E40, 2-chloro-6-methoxy-N-(2-methylcyclohexyl)isonicotinamide] | 0.95
Cc1c(F)c(F)c(C(=O)N[C@H](C)C(C)C)c(F)c1F [Example E47, (R)-2,3,5,6-tetrafluoro-4-methyl-N-(3-methylbutan-2-yl)benzamide] | 1.25
COc1c(Cl)ccc(Cl)c1C(=O)NC1CCCC(C)C1C (stereo not shown) [Example E48, 3,6-dichloro-N-(2,3-dimethylcyclohexyl)-2-methoxybenzamide] | 1.29
Cc1cc(C)c(C(=O)NC2CCCC(C)C2C)c(C)c1 (stereo not shown) [Example E50, N-(2,3-dimethylcyclohexyl)-2,4,6-trimethylbenzamide] | 1.41
O=C(NC1CCc2ccccc21)c1cccc(Cl)c1O (stereo not shown) [Example E51, 3-chloro-N-(2,3-dihydro-1H-inden-1-yl)-2-hydroxybenzamide] | 1.49
Cc1ccc2ccccc2c1C(=O)NC1CCCCC1C (stereo not shown) [Example E52, 2-methyl-N-(2-methylcyclohexyl)-1-naphthamide] | 1.52
CC1CCCCC1NC(=O)c1ccc(F)c(Cl)c1 (stereo not shown) [Example E53, 3-chloro-4-fluoro-N-(2-methylcyclohexyl)benzamide] | 1.7

The remaining compounds from weak to strong by EC50, led by results:

EC50 [µM] | Structure (SMILES)
1.25 | Cc1c(F)c(F)c(C(=O)NC2CCCCCCC2)c(F)c1F [Example E46, N-cyclooctyl-2,3,5,6-tetrafluoro-4-methylbenzamide]
1.13 | Cc1c(F)c(F)c(C(=O)NC2CCCCC2)c(F)c1F [Example E45, N-cyclohexyl-2,3,5,6-tetrafluoro-4-methylbenzamide]
1.08 | Cc1c(F)c(F)c(C(=O)NC2CCCC(C)C2C)c(F)c1F (stereo not shown) [Example E43, N-(2,3-dimethylcyclohexyl)-2,3,5,6-tetrafluoro-4-methylbenzamide]
1.08 | CC1CCCC(NC(=O)c2ccnc(Cl)c2)C1C (stereo not shown) [Example E44, 2-chloro-N-(2,3-dimethylcyclohexyl)isonicotinamide]
1.06 | CCC(COC)NC(=O)c1ccc(C)cc1C (stereo not shown) [Example E42, N-(1-methoxybutan-2-yl)-2,4-dimethylbenzamide]
1.02 | Cc1c(F)c(F)c(C(=O)N[C@@H]2CC3CCC2C3)c(F)c1F (stereo partly drawn) [Example E41, N-((2R)-bicyclo[2.2.1]heptan-2-yl)-2,3,5,6-tetrafluoro-4-methylbenzamide]
0.91 | CC1CCCCC1NC(=O)c1c(Cl)cccc1Cl (stereo not shown) [Example E39, 2,6-dichloro-N-(2-methylcyclohexyl)benzamide]
0.9 | Cc1c(F)c(F)c(C(=O)N[C@@H](C)C(C)(C)C)c(F)c1F [Example E38, (S)-N-(3,3-dimethylbutan-2-yl)-2,3,5,6-tetrafluoro-4-methylbenzamide]
0.77 | COc1c(Cl)ccc(Cl)c1C(=O)NC1CCCCC1C (stereo not shown) [Example E37, 3,6-dichloro-2-methoxy-N-(2-methylcyclohexyl)benzamide]
0.72 | Cc1cc(C)c(C(=O)NC2CCCCC2C)c(C)c1 (stereo not shown) [Example E36, 2,4,6-trunethyl-N-(2-methylcyclohexyl)benzamide]
0.71 | CCCCC(C)NC(=O)c1c(F)c(F)c(C)c(F)c1F (stereo not shown) [Example E34, 2,3,5,6-tetrafluoro-N-(hexan-2-yl)-4-methylbenzamide]
0.71 | COc1c(Cl)cc(Cl)c(OC)c1C(=O)NC1CCCCC1C (stereo not shown) [Example E35, 3,5-dichloro-2,6-dimethoxy-N-(2-methylcyclohexyl)benzamide]
0.63 | CC1CCCCC1NC(=O)c1cc(Cl)ccc1Cl (stereo not shown) [Example E33, 2,5-dichloro-N-(2-methylcyclohexyl)benzamide]
0.51 | CC1CCCCC1NC(=O)c1ccc(F)c(C(F)(F)F)c1 (stereo not shown) [Example E32, 4-fluoro-N-(2-methylcyclohexyl)-3-(trifluoromethyl)benzamide]
0.49 | Cc1c(F)c(F)c(C(=O)N[C@H](C)C(C)(C)C)c(F)c1F [Example E31, (R)-N-(3,3-dimethylbutan-2-yl)-2,3,5,6-tetrafluoro-4-methylbenzamide]
0.45 | CC1CCCCC1NC(=O)c1cc(F)cc(Cl)c1 (stereo not shown) [Example E30, 3-chloro-5-fluoro-N-(2-methylcyclohexyl)benzamide]
0.42 | CC1CCCCC1NC(=O)c1cccc(OC(F)(F)F)c1 (stereo not shown) [Example E29, N-(2-methylcyclohexyl)-3-(trifluoromethoxy)benzamide]
0.21 | Cc1c(F)c(F)c(C(=O)NC(C)C(C)(C)C)c(F)c1F (stereo not shown) [Example E28, N-(3,3-dimethylbutan-2-yl)-2,3,5,6-tetrafluoro-4-methylbenzamide]
0.14 | Cc1c(F)c(F)c(C(=O)NC(C)C(C)C)c(F)c1F (stereo not shown) [Example E27, 2,3,5,6-tetrafluoro-4-methyl-N-(3-methylbutan-2-yl)benzamide]
